Counter-ions that a name gives are not always drawn.
Assays:
[1] = target: human serotonin transporter (Homo sapiens, UniProt P31645); experiment: Human serotonin (hSERT) receptor binding, [125I]-RTI-55; conditions: membranes of HEK-293 cells transfected with human serotonin transporter cDNA, IC50 converted by Cheng-Prusoff
Summary of the method: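 Membranes from HEK-293 cells expressing human SERT were incubated 90 min at room temperature in Krebs-HEPES buffer pH 7.4 with […] [125I]-RTI-55 and compound (10^−5 to 10^−12 M), in duplicate. Nonspecific binding defined with 10 μM citalopram; IC50 converted to Ki by Cheng-Prusoff.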

[2] = system: capsaicin-induced mechanical allodynia; experiment: Capsaicin-induced mechanical allodynia rat model; type: in vivo; conditions: sc, male Sprague-Dawley rats, single subcutaneous 10 mg/kg dose on Day 7, measurement 1 hour post dose, mean of eight animals
Experimental: On Day 0, male Sprague-Dawley rats (about 150 g each) in the dark cycle were placed in suspended wire-bottom cages and allowed to acclimate for 0.5 hour in a darkened, quiet room. The Day 0 paw withdrawal threshold (PWT) was determined on the left hind paw by Von Frey hair assessment using the Dixon up and down method. After assessment, the plantar muscle of the right hind paw was injected with 100 μL of capsaicin (0.25% weight/volume (w/v) in 10% ethanol, 10% Tween 80, in sterile saline).
On Day 6, the PWT of the left hind paw (contralateral from the injected paw) was determined for each animal. Animals on Day 6 with PWT≦11.7 g were considered allodynic responders and were regrouped so that the animals in each cage had similar mean PWT values.
On Day 7, the responders were dosed subcutaneously with 10 mg of the test compound per kg of rat body weight in vehicle, or were administered vehicle (10 mL/kg) alone. The vehicle was phosphate buffered saline containing 2% CREMOPHOR® EL (BASF). The contralateral (i.e., left hind paw) PWT values were determined at 1 hour after the single dose, with the investigator blinded to the dosing scheme. For each animal, the Day 6 PWT value was subtracted from the Day 7, 1 hour PWT value for the 10 mg/kg doses of test compound to give a delta PWT value (Delta PWT (drug)), which represents the change in PWT due to the 1 hour drug treatment. In the case of vehicle-alone treated animals, the Day 6 PWT value was subtracted from the Day 7, 1 hour PWT for the 10 mL/kg doses of vehicle and the values averaged (mean Delta PWT (vehicle)). In addition, the Day 6 PWT was subtracted from the Day 0 PWT to give the baseline level (Baseline) of allodynia present in each animal. Percent inhibition of allodynia of each animal, normalized for vehicle controls, was determined using the following formula: […]

[3] = target: human norepinephrine transporter (Homo sapiens, UniProt P23975); experiment: Human norepinephrine (hNET) receptor binding, [125I]-RTI-55; conditions: membranes of HEK-293 cells transfected with human norepinephrine transporter cDNA; 50 pM [125I]-RTI-55; IC50 converted by Cheng-Prusoff
Sequence of human norepinephrine transporter (P23975 whole entry): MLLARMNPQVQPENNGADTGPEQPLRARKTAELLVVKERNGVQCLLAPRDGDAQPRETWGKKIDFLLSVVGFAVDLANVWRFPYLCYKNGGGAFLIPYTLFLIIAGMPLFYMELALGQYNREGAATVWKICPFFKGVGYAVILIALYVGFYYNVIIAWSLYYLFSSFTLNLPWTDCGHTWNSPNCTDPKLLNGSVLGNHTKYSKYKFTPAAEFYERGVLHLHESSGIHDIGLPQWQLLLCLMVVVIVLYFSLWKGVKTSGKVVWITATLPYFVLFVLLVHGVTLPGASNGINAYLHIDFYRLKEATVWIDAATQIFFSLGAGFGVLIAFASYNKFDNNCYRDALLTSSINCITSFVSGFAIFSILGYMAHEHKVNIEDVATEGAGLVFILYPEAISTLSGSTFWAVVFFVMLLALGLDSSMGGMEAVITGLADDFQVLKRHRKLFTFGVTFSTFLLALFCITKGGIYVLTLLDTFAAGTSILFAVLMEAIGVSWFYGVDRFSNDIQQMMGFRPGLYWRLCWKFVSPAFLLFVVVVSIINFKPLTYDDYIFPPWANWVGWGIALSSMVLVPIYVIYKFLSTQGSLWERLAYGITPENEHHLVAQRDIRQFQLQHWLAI
Summary of the method: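 Membranes from HEK-293 cells expressing human NET, incubated 90 min at room temperature with 50 pM [125I]-RTI-55 and compound (10^−5 to 10^−12 M) in Krebs-HEPES pH 7.4. Nonspecific binding defined with 10 μM desipramine; filter-bound counts gave IC50, converted to Ki by Cheng-Prusoff.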

Sequence of human serotonin transporter (P31645 whole entry): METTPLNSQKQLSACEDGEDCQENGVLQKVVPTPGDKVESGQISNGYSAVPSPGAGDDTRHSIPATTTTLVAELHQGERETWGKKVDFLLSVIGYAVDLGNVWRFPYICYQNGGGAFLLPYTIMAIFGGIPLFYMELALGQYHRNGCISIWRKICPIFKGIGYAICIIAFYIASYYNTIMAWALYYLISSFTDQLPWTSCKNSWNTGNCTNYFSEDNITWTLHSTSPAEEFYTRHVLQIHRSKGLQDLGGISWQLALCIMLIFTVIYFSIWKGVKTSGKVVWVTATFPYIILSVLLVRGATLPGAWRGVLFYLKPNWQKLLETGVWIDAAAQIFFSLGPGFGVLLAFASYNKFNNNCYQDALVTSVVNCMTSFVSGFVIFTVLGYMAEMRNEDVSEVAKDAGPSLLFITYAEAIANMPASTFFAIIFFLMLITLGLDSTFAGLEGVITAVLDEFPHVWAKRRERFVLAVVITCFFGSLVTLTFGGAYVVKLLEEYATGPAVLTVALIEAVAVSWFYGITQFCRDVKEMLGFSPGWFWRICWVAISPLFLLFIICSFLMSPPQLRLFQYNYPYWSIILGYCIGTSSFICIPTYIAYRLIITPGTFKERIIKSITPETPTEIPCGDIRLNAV

COc1cc(C)ccc1Oc1nc(C)ccc1OC[C@H]1CCCNC1 [Example 4, (S)-2-(2-methoxy-4-methyl-phenoxy)-6-methyl-3-(piperidin-3-ylmethoxy)-pyridine fumaric acid]
Ki [1]: 170 nM
inhibition in vivo at 10 mg/kg [2]: 43%
Ki [3]: 7.4 nM

Cc1ccc(OC[C@H]2CCCNC2)c(Oc2ccc(Cl)cc2F)n1 [Example 23, (S)-2-(4-chloro-2-fluoro-phenoxy)-6-methyl-3-(piperidin-3-ylmethoxy)-pyridine fumaric acid]
Ki [1]: 28 nM
inhibition in vivo at 10 mg/kg [2]: 65%
Ki [3]: 5.3 nM

COc1ccc(Oc2nc(C)ccc2OC[C@H]2CCCNC2)cc1 [Example 6, (S)-2-(4-methoxy-phenoxy)-6-methyl-3-(piperidin-3-ylmethoxy)-pyridine fumaric acid]
Ki [1]: 360 nM
inhibition in vivo at 10 mg/kg [2]: 16%
Ki [3]: 16 nM

Cc1ccc(Oc2nc(C)ccc2OC[C@H]2CCCNC2)c(Cl)c1 [Example 14, (S)-2-(2-chloro-4-methyl-phenoxy)-6-methyl-3-(piperidin-3-ylmethoxy)-pyridine fumaric acid]
Ki [1]: 40 nM
inhibition in vivo at 10 mg/kg [2]: 48%
Ki [3]: 2.8 nM

Cc1ccc(OC[C@H]2CCCNC2)c(Oc2ccc(F)cc2F)n1 [Example 25, (S)-2-(2,4-difluoro-phenoxy)-6-methyl-3-(piperidin-3-ylmethoxy)-pyridine fumaric acid]
Ki [1]: 72 nM
inhibition in vivo at 10 mg/kg [2]: 77%
Ki [3]: 3.3 nM

Cc1ccc(OC[C@H]2CCCNC2)c(Oc2c(F)cc(Cl)cc2F)n1 [Example 45, (S)-2-(4-chloro-2,6-difluoro-phenoxy)-6-methyl-3-(piperidin-3-ylmethoxy)-pyridine hydrochloride]
Ki [1]: 29 nM
inhibition in vivo at 10 mg/kg [2]: 1%
Ki [3]: 8.4 nM

COc1cc(Cl)ccc1Oc1nc(C)ccc1OC[C@H]1CCCNC1 [Example 12, (S)-2-(4-chloro-2-methoxy-phenoxy)-6-methyl-3-(piperidin-3-ylmethoxy)-pyridine fumaric acid]
Ki [1]: 120 nM
inhibition in vivo at 10 mg/kg [2]: 88%
Ki [3]: 8.7 nM

Cc1ccc(OC[C@H]2CCCNC2)c(Oc2cc(F)c(F)cc2F)n1 [Example 29, (S)-6-methyl-2-(2,4,5-trifluoro-phenoxy)-3-(piperidin-3-ylmethoxy)-pyridine fumaric acid]
Ki [1]: 130 nM
inhibition in vivo at 10 mg/kg [2]: 11%
Ki [3]: 5.3 nM

Cc1ccc(Oc2nc(C)ccc2OC[C@H]2CCCNC2)cc1 [Example 8, (S)-2-(4-methyl-phenoxy)-6-methyl-3-(piperidin-3-ylmethoxy)-pyridine fumaric acid]
Ki [1]: 159 nM
inhibition in vivo at 10 mg/kg [2]: 22%
Ki [3]: 10.3 nM

CCc1ccc(Oc2nc(C)ccc2OC[C@H]2CCCNC2)c(OC)c1 [Example 11, (S)-2-(4-ethyl-2-methoxy-phenoxy)-6-methyl-3-(piperidin-3-ylmethoxy)-pyridine fumaric acid]
Ki [1]: 180 nM
inhibition in vivo at 10 mg/kg [2]: 9%
Ki [3]: 18 nM

Cc1ccc(OC[C@H]2CCCNC2)c(Oc2c(F)cc(F)cc2F)n1 [Example 44, (S)-6-methyl-2-(2,4,6-trifluoro-phenoxy)-3-(piperidin-3-ylmethoxy)-pyridine hydrochloride]
Ki [1]: 82 nM
inhibition in vivo at 10 mg/kg [2]: 18%
Ki [3]: 4.8 nM

Reference: patent publication US20100120858A1, “Piperidine Derivatives” (Pfizer Inc., priority 2006, published 2010)
